In patent US20120196766A1, “Therapeutic Use of Farnesyltransferase Inhibitors and Methods of Monitoring the Efficacy Thereof” (priority 2004, published 2012):

Legend:
THP-1 cells = test: cDNA microarray analysis of LPS-induced gene transcription in THP-1 cells; assay type: cell-based, Human
Method: THP-1 cells were cultured in RPMI1640 medium, supplemented with 10% FBS/100 units/ml Penicillin/10 μg/ml Streptomycin at 37° C., under 5% CO2. […] For the untreated control group (no LPS, no compound) and LPS alone group, equivalent volumes of DMSO were added to the medium. Cells were cultured at 37° C. and pellets were collected at 0 hr, 1 hr, 3 hr, 6 hr, 12 hr & 24 hr. Cell pellets were stored at −80° C. if RNA isolation was not conducted immediately. For experiments to study cytokine secretion in culture supernatants, THP-1 cells were washed twice with PBS, resuspended at 3.4×10^5/ml and cultured in 96-well plates at 250 μL, per well at 37° C. […] Supernatants were collected at different time points as indicated in the figures and were kept at ≦−20° C. until analysis of cytokine production.
Total RNA was isolated using RNeasy mini kit from QIAGEN (Valencia, Calif.) according to the manufacturer's instructions. RNA samples were stored at −80° C.
Five μg of total RNA was linearly amplified to double-stranded cDNA using T7-based amplification. The cDNA was purified using the QIAquick 96 PCR purification kit (QIAGEN Valencia, Calif.), and used to generate amplified (a) RNA using AmpliScribe™ T7 High Yield Transcription Kit (Epicentre, Madison, Wis.). Ten μg of purified aRNA was reverse transcribed to cDNA using the SuperScript RTII kit (Invitrogen) and labeled by direct incorporation of Cy3-dCTP. The generated cDNA probe was used for hybridizing to cDNA microarrays.
Each clone was spotted in duplicate on the array.

[1] = cited from earlier work
[2] = test system: collagen-induced arthritis; details: WO 00/01386; cited from earlier work
[3] = LPS 100 ng/ml, tipifarnib 5 μM, 3 hr
[4] = LPS 100 ng/ml, tipifarnib 5 μM, 6 hr
[5] = LPS 100 ng/ml, tipifarnib 5 μM, 12 hr
[6] = LPS 100 ng/ml, tipifarnib 5 μM, 24 hr

## Cn1cncc1C(N)(c1ccc(Cl)cc1)c1ccc2c(c1)c(-c1cccc(Cl)c1)cc(=O)n2C (single isomer, unassigned; (+)) [tipifarnib, (+)-6-[amino(4-chlorophenyl)(1-methyl-1H-imidazol-5-yl)methyl]-4-(3-chlorophenyl)-1-methyl-2(1H)-quinolinone]
THP-1 cells; [3]
  Fold-change (tipifarnib/LPS vs LPS) TAP1: 1.15
  Fold-change (tipifarnib/LPS vs LPS) TAP2: −1.15
  Fold-change (tipifarnib/LPS vs LPS) TIMP3: −1.41
  Fold-change (tipifarnib/LPS vs LPS) TRIM22: 1.00
  Fold-change (tipifarnib/LPS vs LPS) UBE2L6: −1.07
THP-1 cells; [4]
  Fold-change (tipifarnib/LPS vs LPS) B2M: −1.23
  Fold-change (tipifarnib/LPS vs LPS) C3AR1: −1.23
  Fold-change (tipifarnib/LPS vs LPS) CCL3: −1.07
  Fold-change (tipifarnib/LPS vs LPS) CCL4: 1.07
  Fold-change (tipifarnib/LPS vs LPS) CCND1: −1.15
  Fold-change (tipifarnib/LPS vs LPS) IER3: 1.15
  Fold-change (tipifarnib/LPS vs LPS) IFI16: −1.32
  Fold-change (tipifarnib/LPS vs LPS) IFIT1: −1.41
  Fold-change (tipifarnib/LPS vs LPS) IGFBP3: 1.00
  Fold-change (tipifarnib/LPS vs LPS) IL8: −1.15
  Fold-change (tipifarnib/LPS vs LPS) KCNK17: −1.32
  Fold-change (tipifarnib/LPS vs LPS) LGR7: −1.41
  Fold-change (tipifarnib/LPS vs LPS) MMP9: −1.41
  Fold-change (tipifarnib/LPS vs LPS) NEXN: −1.41
  Fold-change (tipifarnib/LPS vs LPS) NFKB2: −1.07
  Fold-change (tipifarnib/LPS vs LPS) PTX3: −1.32
  Fold-change (tipifarnib/LPS vs LPS) S100A9: −1.07
  Fold-change (tipifarnib/LPS vs LPS) TIMP3: −1.23
  Fold-change (tipifarnib/LPS vs LPS) UBE2L6: −1.41
THP-1 cells; [5]
  Fold-change (tipifarnib/LPS vs LPS) ABCB8: −1.23
  Fold-change (tipifarnib/LPS vs LPS) CCL3: 1.23
  Fold-change (tipifarnib/LPS vs LPS) GNPNAT1: −1.41
  Fold-change (tipifarnib/LPS vs LPS) IER3: 1.00
  Fold-change (tipifarnib/LPS vs LPS) IFI16: −1.23
  Fold-change (tipifarnib/LPS vs LPS) IFIT1: −1.32
  Fold-change (tipifarnib/LPS vs LPS) IL1RN: −1.15
  Fold-change (tipifarnib/LPS vs LPS) IL8: 1.32
  Fold-change (tipifarnib/LPS vs LPS) KCNK17: 1.00
  Fold-change (tipifarnib/LPS vs LPS) LAP3: −1.23
  Fold-change (tipifarnib/LPS vs LPS) LY6E: 1.15
  Fold-change (tipifarnib/LPS vs LPS) MX1: 1.32
  Fold-change (tipifarnib/LPS vs LPS) MYD88: −1.23
  Fold-change (tipifarnib/LPS vs LPS) NEXN: −1.15
  Fold-change (tipifarnib/LPS vs LPS) NFKB2: −1.32
  Fold-change (tipifarnib/LPS vs LPS) PTX3: −1.32
  Fold-change (tipifarnib/LPS vs LPS) STAT1: 1.00
  Fold-change (tipifarnib/LPS vs LPS) TAP1: −1.15
  Fold-change (tipifarnib/LPS vs LPS) TAP2: −1.32
  Fold-change (tipifarnib/LPS vs LPS) TIMP3: −1.15
  Fold-change (tipifarnib/LPS vs LPS) TRIM22: −1.07
  Fold-change (tipifarnib/LPS vs LPS) UBE2L6: −1.15
THP-1 cells; [6]
  Fold-change (tipifarnib/LPS vs LPS) ABCB8: −1.23
  Fold-change (tipifarnib/LPS vs LPS) B2M: 1.15
  Fold-change (tipifarnib/LPS vs LPS) CCND1: −1.23
  Fold-change (tipifarnib/LPS vs LPS) IER3: 1.23
  Fold-change (tipifarnib/LPS vs LPS) IL1B: −1.23
  Fold-change (tipifarnib/LPS vs LPS) IL8: −1.07
  Fold-change (tipifarnib/LPS vs LPS) LY6E: −1.32
  Fold-change (tipifarnib/LPS vs LPS) MMP9: −1.41
  Fold-change (tipifarnib/LPS vs LPS) MX1: −1.32
  Fold-change (tipifarnib/LPS vs LPS) MYD88: −1.32
  Fold-change (tipifarnib/LPS vs LPS) TAP1: −1.23
  Fold-change (tipifarnib/LPS vs LPS) TAP2: −1.23
  Fold-change (tipifarnib/LPS vs LPS) TIMP3: 1.15
  Fold-change (tipifarnib/LPS vs LPS) UBE2L6: −1.41
THP-1 cells; out of 121 genes with at least […] induction by LPS at 2 time points, at least […] decrease at one or more time points
  number of LPS-induced transcripts downregulated: 34
[1]; at 300 mg twice a day (Karp, Lancet et al. 2001)
  plasma levels: approximately 2 μM
[1]; in a number of studies (Head and Johnston 2003)
  maximum tolerated dose: 300 mg twice a day
[2]
  disease scores: reduction of disease scores
